Laboratory results taken from patent US7001926B2, “Tubulin binding agents and corresponding prodrug constructs” (Oxigene, Inc., priority 2000, dated 2006).
Read-outs that look alike come from different tables or passages of the source.

Tests used:
[1] = test system: murine hemangioendothelioma MHEC-5T cell line; experiment: In vitro antiproliferative activity, MTT assay; assay type: cell-based
Method: The following compounds were tested for in vitro antiproliferative activity against the murine hemangioendothelioma MHEC-5T cell line using a standard MTT assay (see Mosman, J. Immunol. Methods, 1983). In actively proliferating cells, an increase in MTT conversion is spectrophotometrically quantified by the reduction of MTT (3-[4,5-dimethylthiazol-2-yl]-2,5-diphenyl tetrazolium bromide) to the insoluble formazan dye by enzymes associated with metabolic activity. A compound with growth inhibitory activity will cause a reduction in dye formation relative to cells exposed to a vehicle control.

[2] = test system: MHEC-5T hemangioendothelioma tumor; experiment: Inhibition of tumor blood flow, Fluorescent Bead Assay; assay type: in vivo, SCID mice; settings: for % VAPM (vessel area per tumor tissue area as a percentage of the control) / % VNPM (vessel number per tumor tissue area as a percentage of the control): 24 hours post-treatment
Method: The antivascular effects of the C-5 dihydronaphthalene phosphate prodrug Oxi-com 197, 43 was assessed in tumor-bearing mice using a Fluorescent Bead Assay. A MHEC-5T hemangioendothelioma tumor model was established by subcutaneous injection of 0.5×10^6 cultured transformed cell murine myocardial vascular endothelial cell line (“MHEC5-T”) cells into the right flank of Fox Chase CB-17 Severe Combined Immunodeficient (“SCID”) mice. When transplanted tumors reached a size of 500 mm^3 (a size without development of necrosis), the mice received a single intraperitoneal (i.p.) injection of saline control or compound at doses ranging from 3.2 to 25 mg/kg. At 24 hours post-treatment, mice were injected intravenously with 0.25 ml of diluted FluoSphere beads (1:6 in physiological saline) in the tail vein, sacrificed after 3 minutes, and tumor was excised for cryosectioning. Tumor cryosections at a thickness of 8 um were directly examined using quantitative fluorescent microscopy. Blood vessels were indicated by blue fluorescence from injected beads. For quantification, image analysis of 3 sections from three tumors treated in each group were examined and vascular shutdown was expressed as vessel area (mm^2) per tumor tissue area (mm^2) as a percentage of the control (“% VAPM”) and as vessel number per tumor tissue area (mm^2) as a percentage of the control (“% VNPM”). The results as shown in Table 11 indicate a clear dose-dependent effect of the agent on tumor blood flow as indicated by the reduction in blood vessel number and vessel area. Administration of a 25 mg/kg dose of Oxi-com 197 was particularly effective, causing a 90% reduction in tumor vessel number relative to the control.
Additional compounds of the present invention were tested for antivascular effects at two dosages (100 mg/kg and 10 mg/kg) using the same Fluorescent Bead Assay as in the previous experiment.

tubulin = experiment: Inhibition of tubulin polymerization assay; assay type: biochemical; settings: read-out: IC50, In Vitro Inhibition of Tubulin Polymerization; purified bovine brain tubulin, 15 min preincubation at 37° C.
Method: IC50 values for tubulin polymerization were determined according to a previously described procedure (Bai et al, Cancer Research, 1996). Purified tubulin is obtained from bovine brain cells as described in Hamel and Lin (Hamel and Lin, Biochemistry, 1984). Various amounts of inhibitor were preincubated for 15 minutes at 37° C. with purified tubulin. After the incubation period, the reaction was cooled and GTP was added to induce tubulin polymerization. Polymerization was then monitored in a Gilford spectrophotometer at 350 nm. The final reaction mixtures (0.25 ml) contained 1.5 mg/ml tubulin, 0.6 mg/ml microtubule-associated proteins (MAPs), 0.5 mM GTP, 0.5 mM MgCl2, 4% DMSO and 0.1M 4-morpholineethanesulfonate buffer (MES, pH 6.4).

KM20L2 = experiment: Growth inhibition, KM20L2 colon cancer cell line (SRB); assay type: cell-based, human; settings: 48 hours
Method: (§1) Briefly, the cell suspensions, diluted according to the particular cell type and the expected target cell density (5,000–40,000 cells per well based on cell growth characteristics), were added by pipet (100 μl) to 96-well microtiter plates. Inoculates were allowed a preincubation time of 24–28 hours at 37° C. for stabilization. Incubation with the inhibitor compounds lasted for 48 hours in 5% CO2 atmosphere and 100% humidity. Determination of cell growth was performed by in situ fixation of cells, followed by staining with a protein-binding dye sulforhodamine B (SRB), which binds to the basic amino acids of cellular macromolecules. The solubilized stain was measured spectrophotometrically.
(§2) Several compounds were evaluated for cytotoxic activity against […] P388 leukemia cell lines. […] These and additional compounds were evaluated in terms of growth inhibitory activity against several other human cancer cell lines including: central nervous system (“CNS”, SF-295), pancreas (BXPC-3), non-small cell lung cancer (“lung-NSC”, NCI-H460), breast (MCF-7), colon (KM20L2), and prostate (DU-145).

DU-145 = experiment: Growth inhibition, DU-145 prostate cancer cell line (SRB); assay type: cell-based, human; settings: 48 hours
Method: as §1, §2

NCI-H460 = experiment: Growth inhibition, NCI-H460 non-small cell lung cancer cell line (SRB); assay type: cell-based, human; settings: lung-NSC, 48 hours
Method: as §1, §2

BXPC-3 = experiment: Growth inhibition, BXPC-3 pancreas cancer cell line (SRB); assay type: cell-based, human; settings: 48 hours
Method: as §1, §2

MCF-7 = experiment: Growth inhibition, MCF-7 breast cancer cell line (SRB); assay type: cell-based, human; settings: 48 hours
Method: as §1, §2

SF-295 = experiment: Growth inhibition, SF-295 CNS cancer cell line (SRB); assay type: cell-based, human; settings: 48 hours
Method: as §1, §2

[3] = test system: MDA-MB-231 human breast adenocarcinoma; experiment: Tumor growth control in vivo; set-up: species or system SCID mice
Method: The antitumor activity of C-5 dihydronaphthalene phosphate prodrug, Oxi-com 197, was assessed in tumor-bearing mice by measuring its effects on tumor volume in comparison with CA4P. A human breast adenocarcinoma model was established by subcutaneous injection of cultured MDA-MB-231 cells in Fox Chase CB-17 SCID mice. When the average tumor size reached 50–100 mm^3, mice were randomly divided into several groups (n=10) with no significant difference in body weight and tumor size. Mice were administered CA4P or Oxi-com 197 in saline carrier at doses of 25, 50 or 100 mg/kg by daily intraperitoneal (i.p.) injection for 5 consecutive days (Q1×5). Saline carrier only was used as the control treatment. On Day 3, 7, 10, 13, 17 and 23, tumors were excised from animals in each treatment group (n=2) and measured by width and length. Tumor volume was calculated according to the following formula: Length×Width^2×0.4. The dosage effects of Oxi-com 197 is illustrated in FIG. 14.

[4] = 5 days, read-out: IC50 at 5 days
[5] = read-out: IC50 at 1 hour, 1 hour

Compound: COc1ccc(OC)c(C2=CCCc3c2ccc(OC)c3O)c1 [Oxi-com 240]
- IC50 [1, 4]: 0.03 µM
- IC50 [1, 5]: 8 µM

Compound: COc1ccc(C2=CCCc3c2ccc(OC)c3OP(=O)(O)O)cc1OC [Oxi-com 243]
- IC50 [1, 4]: 0.3 µM
- IC50 [1, 5]: 20 µM

Compound: COc1cc(C(=O)C2=CCCc3c2ccc(OC)c3OP(=O)([O-])[O-])cc(OC)c1OC.[Na+].[Na+] [Oxi-com 224]
- IC50 [1, 4]: 0.003 µM
- IC50 [1, 5]: 0.4 µM
- % VAPM at 10 mg/kg dose [2]: 17%
- % VAPM at 100 mg/kg dose [2]: 46%

Compound: COc1ccc(C2=CCCc3c2ccc(OC)c3O)c(OC)c1 [Oxi-com 238]
- IC50 [1, 4]: 0.04 µM
- IC50 [1, 5]: 14 µM

Compound: COc1cc(C(=O)c2cccc3c(OP(=O)([O-])[O-])c(OC)ccc23)cc(OC)c1OC.[Na+].[Na+] [Oxi-com 225]
- IC50 [1, 4]: 0.005 µM
- IC50 [1, 5]: 0.4 µM
- % VAPM at 10 mg/kg dose [2]: 35%
- % VAPM at 100 mg/kg dose [2]: 60%

Compound: COc1cc(C2=CCCc3c2cc(OP(=O)(O)O)c(OC)c3OP(=O)(O)O)cc(OC)c1OC [Oxi-com 199]
- IC50 (tubulin): > 40 µM
- IC50 [1, 4]: > 44.8 µM
- IC50 [1, 5]: > 44.8 µM

Compound: CCOP(=O)(Nc1c(OC)ccc2c1CCC=C2c1cc(OC)c(OC)c(OC)c1)OCC [Oxi-com 143, 6-methoxy-1-(3′,4′,5′-trimethoxyphenyl)-5-diethylphosphoramidate-3,4-dihydronapthalene]
- IC50 (tubulin): > 40 µM

Compound: COc1ccc(C2=CCCc3c2ccc(OC)c3OP(=O)(O)O)c(OC)c1 [Oxi-com 239]
- IC50 [1, 4]: 0.06 µM
- IC50 [1, 5]: 2.4 µM

Compound: COc1ccc2c(c1NC(=O)[C@@H](N)CO)CCC=C2c1cc(OC)c(OC)c(OC)c1 [Oxi-com 229]
- IC50 [1, 4]: > 1.4 µM
- IC50 [1, 5]: > 44 µM

Compound: COc1cc(C2=CCCc3c2cc(O)c(OC)c3O)cc(OC)c1OC [Oxi-com 200]
- IC50 [1, 4]: 16.2 µM
- IC50 [1, 5]: > 50 µM

Compound: COc1cc2c(cc1O)C(c1cc(OC)c(OC)c(OC)c1)=CCC2 [Oxi-com 158]
- GI50 for Cell Line KM20L2 (KM20L2): 2.6 mg/L
- GI50 for Cell Line DU-145 (DU-145): 3.4 mg/L
- GI50 for Cell Line NCI-H460 (NCI-H460): 3.2 mg/L
- GI50 for Cell Line BXPC-3 (BXPC-3): 1.8 mg/L
- GI50 for Cell Line MCF-7 (MCF-7): 1.5 mg/L
- GI50 for Cell Line SF-295 (SF-295): 5.4 mg/L

Compound: COc1ccc(OC)c(C2=CCCc3c2ccc(OC)c3OP(=O)(O)O)c1 [Oxi-com 241]
- IC50 [1, 4]: 0.08 µM
- IC50 [1, 5]: 2.5 µM

Compound: COc1cc(C2=CCCc3c2ccc(OC)c3OP(=O)([O-])[O-])cc(OC)c1OC.[Na+].[Na+] [Oxi-com 197]
- GI50 for Cell Line KM20L2 (KM20L2): 0.33 mg/L
- GI50 for Cell Line DU-145 (DU-145): 0.0055 mg/L
- tumor growth (tumor volume) relative to control treatment ([3]; 25, 50, and 100 mg/kg i.p. daily for 5 days (Q1×5)): significantly inhibited tumor growth
- antitumor activity relative to CA4P ([3]; MDA-MB-231 model, i.p. Q1×5): enhanced antitumor activity relative to CA4P
- GI50 for Cell Line NCI-H460 (NCI-H460): 0.011 mg/L
- GI50 for Cell Line BXPC-3 (BXPC-3): 0.28 mg/L
- GI50 for Cell Line MCF-7 (MCF-7): 0.0045 mg/L
- IC50 [1, 4]: 0.003 µM
- IC50 [1, 5]: 0.1 µM
- GI50 for Cell Line SF-295 (SF-295): 0.0033 mg/L
- % VAPM (vessel area per tumor tissue area as a percentage of the control) ([2]; 6.3 mg/kg single i.p.): 65.4 ± 4.9%
- % VNPM (vessel number per tumor tissue area as a percentage of the control) ([2]; 6.3 mg/kg single i.p.): 66.5 ± 0.5%
- % VAPM (vessel area per tumor tissue area as a percentage of the control) ([2]; 12.5 mg/kg single i.p.): 32.2 ± 6.8%
- % VNPM (vessel number per tumor tissue area as a percentage of the control) ([2]; 12.5 mg/kg single i.p.): 55.5 ± 0.8%
- reduction in tumor vessel number relative to the control ([2]; 25 mg/kg dose): 90%
- % VAPM (vessel area per tumor tissue area as a percentage of the control) ([2]; 25 mg/kg single i.p.): 13.0 ± 5.0%
- % VNPM (vessel number per tumor tissue area as a percentage of the control) ([2]; 25 mg/kg single i.p.): 10.4 ± 6.3%
